Our source for the inhibition and residual activity values is ChEMBL document CHEMBL4507263, “Data for DCP probe BAY-474” (2021).

For assay [1], the target named is Calcium/calmodulin-dependent protein kinase type II subunit beta (Homo sapiens) (UniProt Q13554). In words: CaMKIIbeta (h) Millipore kinase activity assay. Conditions: Compound concentration 1.0 uM.
Assay [2] has as its target T1, cGMP-dependent protein kinase 1 (Homo sapiens) (UniProt Q13976).
T1 sequence (whole entry): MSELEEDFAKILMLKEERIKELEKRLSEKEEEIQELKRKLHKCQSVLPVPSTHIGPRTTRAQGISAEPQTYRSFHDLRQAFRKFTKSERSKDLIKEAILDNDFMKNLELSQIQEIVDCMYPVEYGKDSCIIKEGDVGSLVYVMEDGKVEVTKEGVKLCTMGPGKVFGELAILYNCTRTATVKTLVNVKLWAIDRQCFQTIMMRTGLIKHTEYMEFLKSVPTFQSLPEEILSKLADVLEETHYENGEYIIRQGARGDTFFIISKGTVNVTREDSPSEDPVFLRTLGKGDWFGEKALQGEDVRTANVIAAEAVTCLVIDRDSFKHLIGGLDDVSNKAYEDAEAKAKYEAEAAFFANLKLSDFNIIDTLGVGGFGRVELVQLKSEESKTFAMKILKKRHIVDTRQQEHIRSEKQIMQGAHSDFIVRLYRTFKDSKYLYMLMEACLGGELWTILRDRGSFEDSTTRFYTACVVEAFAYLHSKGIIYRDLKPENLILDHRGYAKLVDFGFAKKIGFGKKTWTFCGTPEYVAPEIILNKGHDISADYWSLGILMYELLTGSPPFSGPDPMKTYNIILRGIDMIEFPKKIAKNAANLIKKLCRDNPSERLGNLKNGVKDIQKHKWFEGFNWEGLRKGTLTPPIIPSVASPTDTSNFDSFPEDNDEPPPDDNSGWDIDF
The assay can be described thus: PKG1beta (h) Millipore kinase activity assay. To be noted: Compound concentration 1.0 uM.

Assay [3] has as its target Eukaryotic elongation factor 2 kinase (Homo sapiens) (UniProt O00418). The assay can be described thus: eEF-2K (h) Millipore kinase activity assay. Conditions: Compound concentration 1.0 uM.
For assay [4], the target named is T2, Alpha-1D adrenergic receptor (Homo sapiens) (UniProt P25100).
T2 sequence (whole entry): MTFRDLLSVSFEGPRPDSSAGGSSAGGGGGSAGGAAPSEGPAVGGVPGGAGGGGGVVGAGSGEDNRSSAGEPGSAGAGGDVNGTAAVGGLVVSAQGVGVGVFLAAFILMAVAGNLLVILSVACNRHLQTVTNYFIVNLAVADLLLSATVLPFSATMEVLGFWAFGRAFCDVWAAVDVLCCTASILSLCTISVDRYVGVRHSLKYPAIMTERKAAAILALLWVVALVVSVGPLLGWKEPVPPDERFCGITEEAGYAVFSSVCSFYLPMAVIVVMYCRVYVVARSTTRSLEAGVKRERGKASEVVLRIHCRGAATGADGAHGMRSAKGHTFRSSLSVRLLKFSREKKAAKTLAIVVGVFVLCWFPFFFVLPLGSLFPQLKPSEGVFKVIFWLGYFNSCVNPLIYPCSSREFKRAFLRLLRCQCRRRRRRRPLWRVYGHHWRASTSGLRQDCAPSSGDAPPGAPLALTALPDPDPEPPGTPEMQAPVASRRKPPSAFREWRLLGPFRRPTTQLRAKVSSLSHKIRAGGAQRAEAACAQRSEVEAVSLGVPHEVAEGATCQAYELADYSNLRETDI
The assay can be described thus: Inhibition of Adrenergic alpha1D at 10 µM in the Eurofins-Panlabs radioligand binding assay (Eurofins_assay_203400). To be noted: Compound concentration 10.0 uM.

For assay [5], the target named is Sodium-dependent dopamine transporter (Homo sapiens) (UniProt Q01959). Conditions: Compound concentration 10.0 uM.
For assay [6], the target named is Serine/threonine-protein kinase 3 (Homo sapiens) (UniProt Q13188). In words: MST2 (h) Millipore kinase activity assay. To be noted: Compound concentration 1.0 uM.
Assay [7] addresses Serine/threonine-protein kinase TAO1 (Homo sapiens) (UniProt Q7L7X3). The assay can be described thus: TAO1 (h) Millipore kinase activity assay. Conditions: Compound concentration 1.0 uM.
Assay [8] has as its target Ephrin type-A receptor 8 (Homo sapiens) (UniProt P29322). The assay can be described thus: EphA8 (h) Millipore kinase activity assay. To be noted: Compound concentration 1.0 uM.
The target of assay [9] is Serine/threonine-protein kinase 17A (Homo sapiens) (UniProt Q9UEE5). The assay can be described thus: DRAK1 (h) Millipore kinase activity assay. To be noted: Compound concentration 1.0 uM.
The target of assay [10] is Mitogen-activated protein kinase 9 (Homo sapiens) (UniProt P45984). The assay can be described thus: JNK2alpha2 (h) Millipore kinase activity assay. Conditions: Compound concentration 1.0 uM.
Assay [11] has as its target Non-receptor tyrosine-protein kinase TNK1 (Homo sapiens) (UniProt Q13470). To be noted: Compound concentration 1000.0 nM.
Assay [12] addresses Tyrosine-protein kinase JAK2 (Homo sapiens) (UniProt O60674). To be noted: Compound concentration 1000.0 nM.
Assay [13] deals with MAP kinase-activated protein kinase 5 (Homo sapiens) (UniProt Q8IW41). Conditions: Compound concentration 1000.0 nM.
Assay [14] deals with Proto-oncogene tyrosine-protein kinase Src (Homo sapiens) (UniProt P12931). Conditions: Compound concentration 1000.0 nM.
Assay [15] has as its system Phosphatidylinositol 4,5-bisphosphate 3-kinase catalytic subunit alpha isoform (Homo sapiens), P42336 [H1047Y]. Conditions: Compound concentration 1000.0 nM.
Assay [16] deals with Serine/threonine-protein kinase Chk2 (Homo sapiens) (UniProt O96017). Conditions: Compound concentration 1000.0 nM.
The target in assay [17] is Calcium/calmodulin-dependent protein kinase type 1G (Homo sapiens) (UniProt Q96NX5). Conditions: Compound concentration 1000.0 nM.
The target in assay [18] is Serine/threonine-protein kinase PAK 1 (Homo sapiens) (UniProt Q13153). Conditions: Compound concentration 1000.0 nM.
The target in assay [19] is Insulin-like growth factor 1 receptor (Homo sapiens) (UniProt P08069). Conditions: Compound concentration 1000.0 nM.
Assay [20] has as its target 5'-AMP-activated protein kinase catalytic subunit alpha-2 (Homo sapiens) (UniProt P54646). Conditions: Compound concentration 1000.0 nM.
Assay [21] concerns Epidermal growth factor receptor (Homo sapiens), P00533 [UNDEFINED MUTATION]. Conditions: Compound concentration 1000.0 nM.
In assay [22] the test system is Tyrosine-protein kinase ABL1 (Homo sapiens), P00519 [T315I]. To be noted: Compound concentration 1000.0 nM.
In assay [23] the target is Protein kinase C delta type (Homo sapiens) (UniProt Q05655). Conditions: Compound concentration 1000.0 nM.
The target of assay [24] is Serine/threonine-protein kinase TAO2 (Homo sapiens) (UniProt Q9UL54). To be noted: Compound concentration 1000.0 nM.
Assay [25] has as its target Dual specificity protein kinase CLK1 (Homo sapiens) (UniProt P49759). Conditions: Compound concentration 1000.0 nM.
In assay [26] the test system is Leucine-rich repeat serine/threonine-protein kinase 2 (Homo sapiens), Q5S007 [G2019S]. Conditions: Compound concentration 1000.0 nM.
Assay [27] addresses Homeodomain-interacting protein kinase 1 (Homo sapiens) (UniProt Q86Z02). Conditions: Compound concentration 1000.0 nM.
Assay [28] addresses Tyrosine-protein kinase Yes (Homo sapiens) (UniProt P07947). To be noted: Compound concentration 1000.0 nM.

Epidermal growth factor receptor (Homo sapiens), P00533 [UNDEFINED MUTATION], sequence (P00533 whole entry, looked up, stated change not applied): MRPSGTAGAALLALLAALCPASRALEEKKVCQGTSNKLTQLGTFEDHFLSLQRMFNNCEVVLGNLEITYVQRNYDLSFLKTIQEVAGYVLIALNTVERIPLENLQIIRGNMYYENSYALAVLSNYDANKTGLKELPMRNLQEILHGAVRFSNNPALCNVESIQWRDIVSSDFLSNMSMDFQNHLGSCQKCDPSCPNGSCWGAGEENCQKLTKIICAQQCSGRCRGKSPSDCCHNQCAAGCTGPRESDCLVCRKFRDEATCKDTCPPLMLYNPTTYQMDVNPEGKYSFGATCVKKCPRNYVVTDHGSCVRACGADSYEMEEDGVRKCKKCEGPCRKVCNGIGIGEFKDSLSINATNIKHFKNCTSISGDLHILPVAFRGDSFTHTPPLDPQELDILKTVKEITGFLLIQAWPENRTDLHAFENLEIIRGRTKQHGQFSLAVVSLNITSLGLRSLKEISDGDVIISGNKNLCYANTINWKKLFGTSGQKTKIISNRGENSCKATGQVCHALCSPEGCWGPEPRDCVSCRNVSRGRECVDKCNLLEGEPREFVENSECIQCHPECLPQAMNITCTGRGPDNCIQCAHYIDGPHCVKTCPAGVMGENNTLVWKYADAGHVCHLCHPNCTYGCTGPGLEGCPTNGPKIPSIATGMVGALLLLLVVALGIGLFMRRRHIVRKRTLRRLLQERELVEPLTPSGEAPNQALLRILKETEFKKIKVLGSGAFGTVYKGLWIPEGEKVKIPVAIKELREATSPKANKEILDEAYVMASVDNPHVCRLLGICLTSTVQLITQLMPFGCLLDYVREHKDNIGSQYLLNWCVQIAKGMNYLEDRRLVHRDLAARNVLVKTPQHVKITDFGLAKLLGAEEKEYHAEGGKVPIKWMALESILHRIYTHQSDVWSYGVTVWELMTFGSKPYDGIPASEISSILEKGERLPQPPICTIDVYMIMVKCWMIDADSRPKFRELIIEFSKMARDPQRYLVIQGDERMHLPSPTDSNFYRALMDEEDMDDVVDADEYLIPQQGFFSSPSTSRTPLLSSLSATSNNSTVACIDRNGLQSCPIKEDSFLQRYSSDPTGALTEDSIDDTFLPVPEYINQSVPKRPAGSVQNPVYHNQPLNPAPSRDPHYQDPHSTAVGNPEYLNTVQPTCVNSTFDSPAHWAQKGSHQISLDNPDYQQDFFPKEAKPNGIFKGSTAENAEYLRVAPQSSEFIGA
Proto-oncogene tyrosine-protein kinase Src (Homo sapiens), sequence (P12931 2-536 limits assumed): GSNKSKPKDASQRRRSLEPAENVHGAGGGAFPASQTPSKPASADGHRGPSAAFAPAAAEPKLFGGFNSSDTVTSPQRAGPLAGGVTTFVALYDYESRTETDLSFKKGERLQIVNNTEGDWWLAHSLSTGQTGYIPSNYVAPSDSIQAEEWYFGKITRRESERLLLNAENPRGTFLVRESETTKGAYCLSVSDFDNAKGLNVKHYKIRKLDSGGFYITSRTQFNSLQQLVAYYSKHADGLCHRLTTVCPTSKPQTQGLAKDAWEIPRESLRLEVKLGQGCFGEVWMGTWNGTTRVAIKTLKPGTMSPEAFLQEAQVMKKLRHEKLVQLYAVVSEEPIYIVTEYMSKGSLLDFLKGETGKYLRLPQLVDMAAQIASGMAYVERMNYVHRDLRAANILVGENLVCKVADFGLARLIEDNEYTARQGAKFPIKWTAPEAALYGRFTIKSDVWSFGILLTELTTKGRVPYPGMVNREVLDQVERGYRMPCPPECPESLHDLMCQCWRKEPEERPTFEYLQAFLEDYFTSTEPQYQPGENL
Ephrin type-A receptor 8 (Homo sapiens), sequence (P29322 whole entry): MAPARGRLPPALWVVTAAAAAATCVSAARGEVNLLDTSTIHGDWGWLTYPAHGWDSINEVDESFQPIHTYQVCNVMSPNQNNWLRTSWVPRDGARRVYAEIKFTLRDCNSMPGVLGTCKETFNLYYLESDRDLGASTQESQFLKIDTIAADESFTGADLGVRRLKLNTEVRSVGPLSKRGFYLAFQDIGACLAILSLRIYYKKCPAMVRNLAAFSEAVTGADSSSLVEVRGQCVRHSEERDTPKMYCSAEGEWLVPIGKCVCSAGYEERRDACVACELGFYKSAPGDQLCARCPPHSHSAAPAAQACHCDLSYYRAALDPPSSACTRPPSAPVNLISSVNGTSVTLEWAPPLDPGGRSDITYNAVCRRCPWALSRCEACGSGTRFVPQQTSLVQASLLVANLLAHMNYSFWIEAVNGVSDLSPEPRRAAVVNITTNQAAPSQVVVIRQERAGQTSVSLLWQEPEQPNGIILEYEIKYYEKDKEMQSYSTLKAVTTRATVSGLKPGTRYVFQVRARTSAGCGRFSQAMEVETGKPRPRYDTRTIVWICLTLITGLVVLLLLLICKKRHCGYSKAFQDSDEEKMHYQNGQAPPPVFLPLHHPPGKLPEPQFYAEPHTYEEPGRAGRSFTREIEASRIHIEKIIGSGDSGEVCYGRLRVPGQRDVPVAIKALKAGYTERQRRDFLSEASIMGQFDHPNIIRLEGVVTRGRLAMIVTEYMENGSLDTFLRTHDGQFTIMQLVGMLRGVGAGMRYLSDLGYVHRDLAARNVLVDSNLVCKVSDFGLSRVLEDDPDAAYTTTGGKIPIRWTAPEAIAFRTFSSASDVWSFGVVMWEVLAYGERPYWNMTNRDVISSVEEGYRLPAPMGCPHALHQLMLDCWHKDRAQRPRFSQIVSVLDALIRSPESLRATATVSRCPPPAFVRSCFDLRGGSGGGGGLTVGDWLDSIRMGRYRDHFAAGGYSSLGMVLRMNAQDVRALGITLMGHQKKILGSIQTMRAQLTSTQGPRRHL
Protein kinase C delta type (Homo sapiens), sequence (Q05655 whole entry, looked up): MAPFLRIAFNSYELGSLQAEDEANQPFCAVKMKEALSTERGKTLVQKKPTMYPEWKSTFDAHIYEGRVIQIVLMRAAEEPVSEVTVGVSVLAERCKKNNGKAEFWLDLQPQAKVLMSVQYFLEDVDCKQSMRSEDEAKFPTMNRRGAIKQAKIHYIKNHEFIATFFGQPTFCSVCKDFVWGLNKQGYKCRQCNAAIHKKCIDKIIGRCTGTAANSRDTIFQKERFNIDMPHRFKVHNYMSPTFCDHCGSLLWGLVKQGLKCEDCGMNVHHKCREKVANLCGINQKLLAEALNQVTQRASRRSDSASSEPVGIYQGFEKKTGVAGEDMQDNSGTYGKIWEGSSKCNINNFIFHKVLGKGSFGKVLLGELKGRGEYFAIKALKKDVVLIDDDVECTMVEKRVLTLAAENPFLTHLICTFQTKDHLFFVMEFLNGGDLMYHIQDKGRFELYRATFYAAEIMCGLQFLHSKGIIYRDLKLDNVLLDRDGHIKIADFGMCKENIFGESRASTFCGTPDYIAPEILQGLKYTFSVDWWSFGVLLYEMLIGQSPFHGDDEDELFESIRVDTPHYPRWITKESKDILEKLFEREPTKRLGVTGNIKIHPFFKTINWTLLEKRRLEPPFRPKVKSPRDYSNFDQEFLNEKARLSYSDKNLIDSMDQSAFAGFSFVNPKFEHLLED
Serine/threonine-protein kinase 3 (Homo sapiens), sequence (Q13188 whole entry): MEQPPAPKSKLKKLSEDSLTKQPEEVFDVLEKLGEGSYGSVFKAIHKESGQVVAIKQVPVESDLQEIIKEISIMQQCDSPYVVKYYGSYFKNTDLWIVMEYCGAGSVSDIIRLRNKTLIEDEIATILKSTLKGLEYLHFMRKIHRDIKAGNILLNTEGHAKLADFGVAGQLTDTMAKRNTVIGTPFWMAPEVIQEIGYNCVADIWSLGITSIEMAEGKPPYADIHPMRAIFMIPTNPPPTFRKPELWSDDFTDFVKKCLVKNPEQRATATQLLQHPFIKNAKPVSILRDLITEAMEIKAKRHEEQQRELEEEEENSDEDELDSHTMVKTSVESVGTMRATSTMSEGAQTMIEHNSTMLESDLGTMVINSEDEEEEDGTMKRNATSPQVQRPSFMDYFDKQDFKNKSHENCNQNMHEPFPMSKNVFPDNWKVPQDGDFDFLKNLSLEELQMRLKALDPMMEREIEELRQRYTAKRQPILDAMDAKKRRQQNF
Serine/threonine-protein kinase PAK 1 (Homo sapiens), sequence (Q13153 whole entry): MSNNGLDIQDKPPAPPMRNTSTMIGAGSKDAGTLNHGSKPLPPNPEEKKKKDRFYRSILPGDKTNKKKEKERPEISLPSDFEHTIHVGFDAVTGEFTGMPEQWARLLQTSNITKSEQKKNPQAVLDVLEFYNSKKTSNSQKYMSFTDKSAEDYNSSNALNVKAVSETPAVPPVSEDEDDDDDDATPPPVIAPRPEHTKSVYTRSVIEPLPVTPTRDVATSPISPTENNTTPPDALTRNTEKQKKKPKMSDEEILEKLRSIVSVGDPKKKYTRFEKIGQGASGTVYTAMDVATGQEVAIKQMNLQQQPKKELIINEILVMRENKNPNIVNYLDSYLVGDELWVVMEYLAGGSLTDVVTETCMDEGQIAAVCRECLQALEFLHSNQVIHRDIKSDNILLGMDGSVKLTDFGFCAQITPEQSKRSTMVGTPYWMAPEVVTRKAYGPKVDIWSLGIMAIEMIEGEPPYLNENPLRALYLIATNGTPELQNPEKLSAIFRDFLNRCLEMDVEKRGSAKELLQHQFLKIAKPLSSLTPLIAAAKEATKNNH
Calcium/calmodulin-dependent protein kinase type 1G (Homo sapiens), sequence (Q96NX5 whole entry): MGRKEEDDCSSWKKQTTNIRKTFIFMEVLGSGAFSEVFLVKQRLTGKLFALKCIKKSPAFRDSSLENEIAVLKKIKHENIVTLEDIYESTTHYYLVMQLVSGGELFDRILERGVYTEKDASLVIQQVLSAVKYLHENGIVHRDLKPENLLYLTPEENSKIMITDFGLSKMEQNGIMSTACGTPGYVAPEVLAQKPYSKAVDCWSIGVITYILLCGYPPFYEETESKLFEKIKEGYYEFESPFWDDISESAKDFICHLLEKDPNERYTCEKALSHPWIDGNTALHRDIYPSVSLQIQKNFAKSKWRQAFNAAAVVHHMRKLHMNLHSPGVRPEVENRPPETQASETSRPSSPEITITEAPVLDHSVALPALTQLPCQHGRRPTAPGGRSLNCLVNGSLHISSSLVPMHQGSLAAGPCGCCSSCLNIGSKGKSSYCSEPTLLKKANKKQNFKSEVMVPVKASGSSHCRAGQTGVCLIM

On to `CC1=C(C#N)C(c2ccc3[nH]nc(C)c3c2)C(C#N)=C(C)N1` [BAY-474], for which the inhibition in [1] was 4%; in assay [2] it was 16%; in assay [3], -5%; in assay [4], -9%; in assay [5], 0%; in [6], 7%. For the same molecule, the inhibition in assay [7] was -6%; in assay [8] it was -1%; in assay [9] it was -6%; in assay [10], 17%.
Consider `CC1=C(C#N)[C@@H](c2ccc3[nH]nc(C)c3c2)C(C#N)=C(c2ccc(Cl)cc2)N1` [BAY-827], for which the residual activity in [11] was 65%; in assay [12], 100%; in assay [13] it was 100%; in assay [14] it was 100%; in assay [15], 35.8%; in [16] it was 100%. For the same molecule, the residual activity in assay [17] is 100%; in [18] it was 100%; in assay [19], 100%; in [20], 95.3%; in assay [21] it was 79.5%; in assay [22], 100%. Besides, the residual activity in assay [23] is 86.3%; in assay [24] it was 100%; in assay [25], 100%; in assay [26], 79.5%; in [27] it was 56.7%; in assay [28] it was 100%.
